From paper PMC10924921, “Mi-2β promotes immune evasion in melanoma by activating EZH2 methylation” (Nature Communications, 2024)

Key:
[1] = molecular target: recombinant purified human Mi-2β protein (Homo sapiens, UniProt Q14839); experiment: FRET-based nucleosome repositioning assay (EpiDyne-FRET); details: read-out: apparent ATP Km; ATP titration 0.1 to 300 µM, 12.5 nM Mi-2β, 15 minutes
[2] = test system: BRafV600E/Ptennull melanoma cells with or without Mi-2β; experiment: CCK-8 proliferation after Braf inhibitor; type: cell-based, mouse; details: 10 μM, 24 h
Protocol: To test whether Mi-2β deficiency affects the sensitivity of tumor cells to Braf inhibitors, melanoma cells were isolated from Tyr::CreER;BRaf^CA;Pten^lox/lox and Tyr::CreER;BRaf^CA;Pten^lox/lox; Mi-2β^lox/lox mice and a cell proliferation assay was performed. BRAF mutation and Mi-2β-depleted melanoma cells or BRAF mutation melanoma cells (5 × 10^3 cells/100 μl) were cultured with 10 μM PLX4032 (Selleck, China) for 24 h and cell proliferation of melanoma cells were determined using the CCK-8 assay.
Supplementary Figure 2. […] Scale bar=200 µm. b Tumor-infiltrating lymphocytes were assayed by flow cytometry. c Treg cells within CD45+ T cells in TILs were assayed and quantified by flow cytometry.
(n=5). d Melanomas isolated from BRafV600E/Ptennull mice and BRafV600E/Ptennull /Mi-2βnull mice were processed for immunohistochemistry staining to detect the number of CD8+ T cells. […] Melanoma cells isolated from Tyr::CreER;BRafCA;Ptenlox/lox and Tyr::CreER;BRafCA;Ptenlox/lox;Mi-2βlox/lox mice were treated with PLX4032 (10μM) for 24 hours and cell proliferation was determined by CCK-8 assay (n=6). c, e, f: Values represent mean ± SD. […]

[3] = test system: PC3 prostate cancer cells; design: method as in Shubhada Sharma, et al., Biochemistry 2013; details: ref Shubhada Sharma, et al., Biochemistry 2013; read-out: IC50, cytotoxicity; cited from earlier work
melanoma = details: cited from earlier work

recombinant purified human Mi-2β protein, sequence (Q14839 whole entry): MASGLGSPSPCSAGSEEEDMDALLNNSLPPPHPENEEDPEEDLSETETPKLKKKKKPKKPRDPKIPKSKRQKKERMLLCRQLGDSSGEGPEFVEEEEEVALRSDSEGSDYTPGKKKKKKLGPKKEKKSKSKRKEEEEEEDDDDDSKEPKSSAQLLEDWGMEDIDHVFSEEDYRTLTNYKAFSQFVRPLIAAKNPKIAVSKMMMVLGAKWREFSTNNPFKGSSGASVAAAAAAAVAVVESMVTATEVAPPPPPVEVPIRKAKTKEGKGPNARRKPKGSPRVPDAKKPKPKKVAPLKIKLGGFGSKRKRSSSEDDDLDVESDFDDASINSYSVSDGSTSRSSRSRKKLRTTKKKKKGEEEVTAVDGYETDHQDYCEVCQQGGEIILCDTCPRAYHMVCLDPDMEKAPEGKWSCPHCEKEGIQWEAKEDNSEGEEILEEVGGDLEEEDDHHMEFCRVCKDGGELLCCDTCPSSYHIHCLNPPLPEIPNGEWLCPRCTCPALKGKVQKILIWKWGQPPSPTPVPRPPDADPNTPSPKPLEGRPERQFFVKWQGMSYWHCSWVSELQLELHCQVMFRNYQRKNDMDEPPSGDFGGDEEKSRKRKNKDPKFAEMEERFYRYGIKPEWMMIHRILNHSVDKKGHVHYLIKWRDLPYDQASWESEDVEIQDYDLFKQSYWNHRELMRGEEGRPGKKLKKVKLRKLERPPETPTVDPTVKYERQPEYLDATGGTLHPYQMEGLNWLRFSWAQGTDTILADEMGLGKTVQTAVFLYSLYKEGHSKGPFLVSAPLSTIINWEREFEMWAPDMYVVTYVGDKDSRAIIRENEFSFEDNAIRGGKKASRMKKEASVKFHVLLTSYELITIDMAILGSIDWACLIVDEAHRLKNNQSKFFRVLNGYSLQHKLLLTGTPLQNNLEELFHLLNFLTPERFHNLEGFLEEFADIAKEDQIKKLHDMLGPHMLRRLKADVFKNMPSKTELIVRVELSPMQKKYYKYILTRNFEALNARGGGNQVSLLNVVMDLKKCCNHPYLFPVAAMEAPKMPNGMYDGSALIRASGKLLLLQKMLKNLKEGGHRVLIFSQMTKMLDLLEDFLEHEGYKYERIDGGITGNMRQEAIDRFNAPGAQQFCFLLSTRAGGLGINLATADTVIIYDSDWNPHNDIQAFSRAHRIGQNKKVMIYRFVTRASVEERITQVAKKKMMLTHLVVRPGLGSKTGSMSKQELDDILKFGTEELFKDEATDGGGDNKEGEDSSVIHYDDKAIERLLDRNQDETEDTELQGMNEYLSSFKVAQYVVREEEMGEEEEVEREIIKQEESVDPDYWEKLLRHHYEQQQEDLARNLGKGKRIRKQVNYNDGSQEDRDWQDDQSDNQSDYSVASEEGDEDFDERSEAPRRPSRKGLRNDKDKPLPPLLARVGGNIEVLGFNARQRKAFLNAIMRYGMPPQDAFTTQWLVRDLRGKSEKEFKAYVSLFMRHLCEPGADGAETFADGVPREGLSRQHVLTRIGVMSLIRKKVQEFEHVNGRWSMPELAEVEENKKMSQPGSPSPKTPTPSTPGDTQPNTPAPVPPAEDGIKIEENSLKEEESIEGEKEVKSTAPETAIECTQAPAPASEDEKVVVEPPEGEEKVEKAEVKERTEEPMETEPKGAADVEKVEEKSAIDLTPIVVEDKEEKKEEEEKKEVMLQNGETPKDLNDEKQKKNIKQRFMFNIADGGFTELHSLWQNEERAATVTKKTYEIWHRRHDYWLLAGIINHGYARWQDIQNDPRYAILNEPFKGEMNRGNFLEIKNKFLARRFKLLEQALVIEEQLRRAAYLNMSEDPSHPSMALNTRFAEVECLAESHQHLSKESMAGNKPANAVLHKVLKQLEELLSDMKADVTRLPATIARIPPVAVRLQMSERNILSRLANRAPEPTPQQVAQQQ

## Nc1ncnc2c1ncn2[C@@H]1O[C@H](COP(=O)(O)OP(=O)(O)OP(=O)(O)O)[C@@H](O)[C@H]1O [ATP]
[1]
  Km: 11.5 µM

## CCCS(=O)(=O)Nc1ccc(F)c(C(=O)c2c[nH]c3ncc(-c4ccc(Cl)cc4)cc23)c1F [PLX4032]
[2]
  cell survival in melanoma cells with or without Mi-2β expression: no difference in cell survival

## CC(=O)O[C@H]1C(=O)[C@@]2(C)[C@H]([C@H](OC(=O)c3ccccc3)[C@]3(O)C[C@H](OC(=O)[C@H](O)[C@@H](NC(=O)c4ccccc4)c4ccccc4)C(C)=C1C3(C)C)[C@]1(OC(C)=O)CO[C@@H]1C[C@@H]2O [paclitaxel]
[3]
  IC50: 1.41 nM

## pembrolizumab: anti-PD-1 antibody
melanoma
  melanoma patients that respond: 33%

## ipilimumab: anti-CTLA-4 antibody
melanoma
  melanoma patients that respond: 20%
